Measurements as given in patent US6610649B2, “Insulin C-peptides” (Creative Peptides Sweden AB, priority 1996, dated 2003).

How the values were obtained:
Na^+K^+ATPase = test: Stimulation of Na+K+ATPase activity of rat renal tubule cells (microdissected proximal convoluted tubules, 32P-ATP with or without ouabain); format: cell-based; settings: for activity of peptides containing D-amino acid isomers (in words): Na^+K^+ATPase of rat renal tubule segments; for relative stimulatory activity on Na^+K^+ATPase activity: 5-10^−7 M peptide, rat C-peptide 1 at the same concentration set at 100%, tubules incubated 30 minutes at room temperature; for stimulation of Na^+K^+ATPase activity compared with whole C-peptide (in words): renal tubule cells in vitro
Protocol: Fragments of the invention have been proven to stimulate Na^+K^+ATPase activity to varying extent. […] As much as 90% of the effect is achieved within 3 minutes. […] Combinations of Peptides A-D with Peptides E or F result in a stimulation of the enzyme activity that is greater than that for either peptide alone. For detailed examples of the stimulatory effects of the above peptides, see Example 1, below.
In the case of peptide A certain studies on Na^+K^+ATPase activity, studying the ability of the peptide fragments to stimulate the activity of Na^+K^+ATPase of rat renal tubule segments, have shown that one or more of the central tri-glycine residues may be important, and preferred peptide fragments, where peptide A is concerned, thus include at least one, and more preferably, at least two, of the central tri-glycine residues. Thus, in addition to peptides B, C and D mentioned above, representative exemplary peptide fragments include GGGPGAG (SEQ ID NO. 8), GGGPG (SEQ ID No. 9), GGGP (SEQ ID NO. 10), GGP and GGPG (SEQ ID NO. 11).
The stimulatory effect of Peptides A-F on Na^+K^+ATPase activity of rat renal tubule cells was examined. Single proximal convoluted tubules were prepared from rat kidneys by micro-dissection. The tubules were incubated for 30 minutes at room temperature with either of Peptides A-F or rat C-peptide 1. Na^+K^+ATPase activity was then measured following exposure of the tubules to hypotonic shock and incubation for 15 minutes in a medium containing ^32P-ATP in the presence or absence of oubain.
The stimulatory activity of 5-10^−7 M rat C-peptide 1 was set at 100%. For the same concentration of Peptides A-F the following relative activities were obtained: […]

[1] = test system: cell surface of human renal tubule cells (C-peptide binding site); test: Binding of rhodamine-labelled C-peptide to cultured human renal tubule cells, by fluorescence correlation spectroscopy; settings: for effect of preincubation on binding of fluorescently labelled C-peptide (in words): preincubation of cells with the unlabelled peptide
Protocol: When fluorescently labelled C-peptide is incubated with cells it binds to the cell surface. […] For a detailed example of the binding of Fragment E see Example 28, below.
The specific binding of Peptide E to the cell surface is illustrated as follows. Human biosynthetic C-peptide (Eli-Lilly, Inc., Indianapolis, USA) was labelled with tetramethylrhodamine using the activated reagent tetramethylrhodamine succinimidyl ester (FluoReporter® Protein labelling kit, Art. no. F-6163; Molecular Probes Europe BV, Leiden, Netherlands). The coupling reaction was performed at pH 8.3 (0.1 M NaHCO3 buffer) with a five-fold stoichiometrical excess of activated reagent to C-peptide. The tetramethylrhodamine group has absorption/emission maxima at 555/580 nm, respectively and is incorporated in the N-terminus of the C-peptide. Labelled C-peptides were purified by gel filtration (desalting against 50 mM phosphate buffer, 0.1 M NaCl, pH 7.4) on a NAP-5 column; Pharmacia Biotech Uppsala, Sweden) and subsequently by preparative reverse phase chromatography (250 mm Kromasil C8 column, diam. 4.6 mm, 7 μm particle size, 10 nm pore size, Eka-Nobel, Surte, Sweden) using a 1090 Hewlett Packard HPLC chromatography system (Grenoble, France) (FIG. 1). Eluted material was immediately adjusted to pH 8 by addition of ammonia and subsequently lyophilized.
Cultured human renal tubule cells (proximal convoluted tubules, PCT) were incubated with the rhodamine labelled C-peptide synthesized as described above. The cells were prepared from the healthy part of a human kidney removed surgically because of hypernephroma. The outer 150 μm of the renal cortex was removed in a microtome and incubated in a collagenase solution (0.05%) at 37° C. for 15 minutes. A tissue suspension was centrifuged and rinsed twice with 0.01% soybean trypsin inhibitor-solution (Gibco Laboratories, Grand Island, N.Y., USA) and a concentrate of PCT fragments and PCT cells were plated onto glass cover slips. The cells were cultured in Dulbecco's Modified Eagle's Medium [DMEM, 20 mmol/l 4-(2-hydroxyethyl)-1-piperazineethane sulphoric acid (Hepes), 24 mmol/l NaHCO3 50,000 IU/l penicillin and 50 mg/l streptomycin, pH 7.4] with 10% fetal bovine serum (Gibco) in an incubator at 37° C. with 95% O2, and 5% CO2. After 28 hours in culture the medium was changed to DMEM with 1% fetal bovine serum. The cells were examined approximately 18-36 hours later.
The interaction between C-peptide and the cell surface of the tubule cells was recorded using fluorescence correlation spectroscopy (11). […] In contrast, when the cells were preincubated with 5 μM of Peptide E, C-peptide binding after 50 minutes was no more than 12%.

Question: For D,L-LG, which “activity of peptides containing D-amino acid isomers (in words)” value (Na^+K^+ATPase) is on record?
Answer: active

Question: How did the “activity of peptides containing D-amino acid isomers (in words)” value (Na^+K^+ATPase) turn out when D-LG was run?
Answer: active

Question: Which “C-peptide bound to the cell surface” value ([1]; C-peptide 5 nM, within 50 minutes, no competitor) does the source give for “EAEDLQVGQVELGGGPGAGSLQPLALEGSLQ (N-terminal tetramethylrhodamine label) [C-peptide, human biosynthetic C-peptide (Eli-Lilly)]” here?
Answer: 92%

Question: What about the “effect of preincubation on binding of fluorescently labelled C-peptide (in words)” value [1] of the same substance?
Answer: prevents binding of the fluorescently labelled C-peptide

Question: What does the source list for “EGSLQ [Peptide E, C-terminal fragment of human insulin C-peptide]”?
Answer: relative stimulatory activity on Na^+K^+ATPase activity (Na^+K^+ATPase): 110±3%; stimulation of Na^+K^+ATPase activity compared with whole C-peptide (in words) (Na^+K^+ATPase): comparable to or greater than that for the whole molecule; C-peptide remaining bound after later addition of the peptide ([1]; C-peptide bound for 50 minutes, then peptide added, within 4 hours): 14%; C-peptide binding after 50 minutes ([1]; cells preincubated with 5 μM of the peptide, C-peptide 5 nM): no more than 12%; effect of preincubation on binding of fluorescently labelled C-peptide (in words) [1]: prevent binding of the fluorescently marked C-peptide

Question: With ELGG [Peptide B, fragment of Peptide A] as the substance, how does the “relative stimulatory activity on Na^+K^+ATPase activity” value (“relative stimulatory activity” for short) (Na^+K^+ATPase) read?
Answer: 36±2%

Question: How did the “relative stimulatory activity” value (Na^+K^+ATPase) turn out when “ELGGGP [Peptide C, fragment of Peptide A]” was run?
Answer: 46±3%

Question: How did the “relative stimulatory activity” value (Na^+K^+ATPase) turn out when “ELGGGPGAG [Peptide A, fragment of human insulin C-peptide]” was run?
Answer: 88±3%

Question: How did the “relative stimulatory activity” value (Na^+K^+ATPase) turn out when “GGPGA [Peptide D, fragment of Peptide A]” was run?
Answer: 65±4%

Question: GSLQ [Peptide F, fragment of Peptide E] was tested. Which “relative stimulatory activity” value (Na^+K^+ATPase) did it give?
Answer: 96±2%

Question: What about the “stimulation of Na^+K^+ATPase activity compared with whole C-peptide (in words)” value (Na^+K^+ATPase) of the same substance?
Answer: comparable to or greater than that for the whole molecule

Question: What about the “effect of preincubation on binding of fluorescently labelled C-peptide (in words)” value [1] of the same substance?
Answer: prevent binding of the fluorescently marked C-peptide
